Test results from patent US8497263B2, “Pyrrolinone derivative and pharmaceutical composition comprising the same” (Shionogi & Co., Ltd., priority 2007, dated 2013).

Columns and labels:
[1] = target: T1, human P2X3 receptor (Homo sapiens, UniProt P56373); assay: Inhibition of ATP-induced calcium fluorescence (Fluo-3, FDSS 3000) in C6BU-1 cells stably expressing human P2X3 receptor; format: cell-based; conditions: C6BU-1 cell transfected with human P2X3 receptor gene; 40 nM ATP solution; Fluo-3 fluorescence intensity
T1 construct: expressed in transfected cells
T1 sequence (P56373 1-397): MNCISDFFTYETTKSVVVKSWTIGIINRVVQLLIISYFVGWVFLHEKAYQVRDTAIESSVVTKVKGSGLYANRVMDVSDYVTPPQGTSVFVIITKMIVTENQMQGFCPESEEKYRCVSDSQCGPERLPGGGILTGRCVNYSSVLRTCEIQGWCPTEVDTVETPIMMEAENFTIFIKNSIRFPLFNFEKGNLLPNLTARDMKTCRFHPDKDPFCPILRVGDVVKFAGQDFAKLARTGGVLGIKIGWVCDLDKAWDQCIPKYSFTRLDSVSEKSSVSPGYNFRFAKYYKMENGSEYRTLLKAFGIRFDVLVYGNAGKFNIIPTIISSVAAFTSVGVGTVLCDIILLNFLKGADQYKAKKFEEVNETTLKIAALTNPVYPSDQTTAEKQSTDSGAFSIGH
Protocol: Stably expressing cell line (C6BU-1 cell transfected with human P2X3 receptor gene (GenBank accession number Y07683)) was used. The cells were seeded in a 96-well microtiter plate at a concentration of 8000 cells/well and cultured in the medium (8.3% fetal bovine serum, 8.3% horse serum, 1% antibiotic and antifungal in DMEM) for one day at 37° C. under 5% carbon dioxide atmosphere. The medium was replaced with 4 μM Fluo-3-AM solution (pH7.5) containing 20 mM HEPES, 137 mM NaCl, 2.7 mM KCl, 0.9 mM MgCl2, 5.0 mM CaCl2, 5.6 mM D-glucose, 2.5 mM probenecid, 10% BSA, and 0.08% Pluronic F-127, and incubated at 37° C. under 5% dioxide carbon atmosphere for one hour. The plate was washed with washing buffer (20 mM HEPES, 137 mM NaCl, 2.7 mM KCl, 0.9 mM MgCl2, 5.0 mM CaCl2, 5.6 mM D-glucose, 2.5 mM probenecid, pH7.5), and each well was added with 40 μL of this buffer. The plate was placed in High-Throughput Screening System FDSS 3000 (Hamamatsu Photonics K.K.). Measurement of fluorescence intensity by FDSS 3000 was started, and 40 μL of DMSO solutions containing different concentrations of the test compound as prepared by dilution with dilution buffer (20 mM HEPES, 137 mM NaCl, 2.7 mM KCl, 0.9 mM MgCl2, 5.0 mM CaCl2, 5.6 mM D-glucose, 2.5 mM probenecid, 0.1% Pluronic F-127, pH7.5) were dispensed to each well through the built-in automatic dispenser. Five minutes after, 40 nM ATP solution (50 μL) prepared by dilution with the dilution buffer was dispensed through the built-in automatic dispenser, and the measurement of fluorescence intensity was continued for 3 min. For each well, the specific maximum fluorescence intensity was calculated as the ratio of the maximum fluorescence intensity after addition of the ATP solution to the fluorescence intensity at the starting of the measurement. […] FDSS software (Hamamatsu Photonics K.K.) was used for calculation of the specific maximum fluorescence intensity. IC50 was calculated using Microsoft™ Excel™ (Microsoft Corporation) and XLfit™ (ID Business Solutions Ltd.).

melting point: 225 to 228 °C (dec.)
IC50 [1]: 580 nM
Structure (SMILES): COc1ccc(C(=O)C2=C(O)C(=O)N(c3ccc(SC(F)(F)F)cc3)C2c2ccc(F)cc2)cc1 (centres unmarked) [Example I-45]
